System: HaCaT cells
Experiment: Concentrations of inflammatory mediators produced by HaCaT cells stimulated with TNFα and IFNγ in presence/absence of JAK inhibitors (ProCarta)
Assay type: cell-based, human
In short: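 Mediator levels (pg/mL) in culture media quantified by multiplex Luminex bead assay against standard curves. Media collected after 24 h at 37 °C from HaCaT cells exposed to 25 ng/mL each of IFNγ and TNFα following 15 min drug pre-incubation; drug final concentrations 25–200 nM (25, 50, 100, 200 nM).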

[1] = TNFα 25 ng/mL + IFNγ 25 ng/mL, drug 100 nM
[2] = TNFα 25 ng/mL + IFNγ 25 ng/mL, drug 200 nM

`N#CCC1(n2cc(-c3ncnc4[nH]ccc34)cn2)CN(C2CCN(C(=O)c3ccnc(C(F)(F)F)c3F)CC2)C1` [Cpc B] showed an IL15 concentration [1] of 2.58 ± 0.68 pg/mL, an IL17A concentration [1] of 4.84 ± 0.34 pg/mL and an IL18 concentration [1] of 156.06 ± 3.24 pg/mL. The IL21 concentration [1] was 2.36 ± 0.35 pg/mL, the IL22 concentration [1] was 8.03 ± 0.87 pg/mL and the IL23 concentration [1] was 6.44 ± 0.69 pg/mL. The IL27 concentration [1] was 5.36 ± 0.73 pg/mL, the IL31 concentration [1] was 3.35 ± 0.44 pg/mL and the IP-10/CXCL10 concentration [1] was 4050.7 ± 471.31 pg/mL. It also gave an LIF concentration [1] of 70.3 ± 3.65 pg/mL, an MCP1 concentration [1] of 15200 ± 0 pg/mL and an MIP1 alpha concentration [1] of 91.52 ± 5.05 pg/mL. For the same compound, the MIP1 beta concentration [1] was 323.13 ± 6.82 pg/mL, the PDGF-BB concentration [1] was 5.4 ± 0.16 pg/mL and the PIGF-1 concentration [1] was 54.67 ± 3.27 pg/mL. The RANTES concentration [1] was 194.21 ± 12.67 pg/mL, the SCF concentration [1] was 4.26 ± 0.17 pg/mL and the SDF-1 alpha concentration [1] was 3471.01 ± 111.77 pg/mL. For the same compound, the TNF alpha concentration [1] was 11722.68 ± 1259.67 pg/mL, the TNF beta concentration [1] was 4 ± 0.51 pg/mL and the VEGF-A concentration [1] was 1262.01 ± 46.28 pg/mL. It also gave a VEGF-D concentration [1] of 8.71 ± 0.65 pg/mL, a bNGF concentration [1] of 7.04 ± 0.59 pg/mL and a BDNF concentration [2] of 4.1 ± 0.24 pg/mL. The EGF concentration [2] was 1.52 ± 0.1 pg/mL, the Eotaxin concentration [2] was 10.05 ± 0.19 pg/mL and the FGF-2 concentration [2] was 21.39 ± 1.61 pg/mL. It also gave a GM-CSF concentration [2] of 134.13 ± 3.74 pg/mL, a GRO alpha concentration [2] of 563.61 ± 42.17 pg/mL and an HGF concentration [2] of 13.5 ± 0.57 pg/mL. For the same compound, the IFN alpha concentration [2] was 0.26 ± 0 pg/mL, the IFN gamma concentration [2] was 25272.53 ± 3796.83 pg/mL and the IL1RA concentration [2] was 5710.44 ± 269.38 pg/mL. The IL1 alpha concentration [2] was 6.16 ± 0.35 pg/mL, the IL1 beta concentration [2] was 8.43 ± 0.29 pg/mL and the IL2 concentration [2] was 31.86 ± 1.25 pg/mL. The IL4 concentration [2] was 6.42 ± 1.24 pg/mL, the IL5 concentration [2] was 25.88 ± 1.37 pg/mL and the IL6 concentration [2] was 568.73 ± 24.74 pg/mL. It also gave an IL7 concentration [2] of 2.09 ± 0.14 pg/mL, an IL8 concentration [2] of 3023.88 ± 193.36 pg/mL and an IL9 concentration [2] of 3.28 ± 0.35 pg/mL. It also gave an IL10 concentration [2] of 0.84 ± 0.06 pg/mL, an IL12p70 concentration [2] of 1.87 ± 0.16 pg/mL and an IL13 concentration [2] of 2.52 ± 0.3 pg/mL. The IL15 concentration [2] was 2.57 ± 0.54 pg/mL, the IL17A concentration [2] was 4.43 ± 0.26 pg/mL and the IL18 concentration [2] was 159.36 ± 4.73 pg/mL. The IL21 concentration [2] was 2.47 ± 0.28 pg/mL, the IL22 concentration [2] was 7.74 ± 0.78 pg/mL and the IL23 concentration [2] was 7.41 ± 0.5 pg/mL. The IL27 concentration [2] was 8.04 ± 1.65 pg/mL, the IL31 concentration [2] was 3.93 ± 0.4 pg/mL and the IP-10/CXCL10 concentration [2] was 4071.78 ± 411.22 pg/mL. For the same compound, the LIF concentration [2] was 71.92 ± 2.82 pg/mL, the MCP1 concentration [2] was 17302.89 ± 2102.89 pg/mL and the MIP1 alpha concentration [2] was 83.1 ± 2.77 pg/mL. The MIP1 beta concentration [2] was 318.83 ± 8.71 pg/mL, the PDGF-BB concentration [2] was 5.28 ± 0.15 pg/mL and the PIGF-1 concentration [2] was 54.61 ± 2.69 pg/mL. It also gave an RANTES concentration [2] of 183.18 ± 13.92 pg/mL, an SCF concentration [2] of 4.2 ± 0.17 pg/mL and an SDF-1 alpha concentration [2] of 3481.04 ± 134.24 pg/mL. The TNF alpha concentration [2] was 11233.91 ± 945.2 pg/mL, the TNF beta concentration [2] was 4.42 ± 0.45 pg/mL and the VEGF-A concentration [2] was 1232.36 ± 49.33 pg/mL. It also gave a VEGF-D concentration [2] of 9.12 ± 0.78 pg/mL, a bNGF concentration [2] of 6.52 ± 0.69 pg/mL and a BDNF concentration (no stimulation, drug 200 nM) of 5.35 ± 0.34 pg/mL. It also gave an EGF concentration (no stimulation, drug 200 nM) of 1.06 ± 0.14 pg/mL, an Eotaxin concentration (no stimulation, drug 200 nM) of 2.22 ± 0.09 pg/mL and an FGF-2 concentration (no stimulation, drug 200 nM) of 8.5 ± 0.95 pg/mL. For the same compound, the GM-CSF concentration (no stimulation, drug 200 nM) was 8.69 ± 1.22 pg/mL, the GRO alpha concentration (no stimulation, drug 200 nM) was 228.97 ± 14.45 pg/mL and the HGF concentration (no stimulation, drug 200 nM) was 4.44 ± 0.32 pg/mL. For the same compound, the IFN alpha concentration (no stimulation, drug 200 nM) was 0.23 ± 0.02 pg/mL, the IFN gamma concentration (no stimulation, drug 200 nM) was 3.39 ± 0.69 pg/mL and the IL1RA concentration (no stimulation, drug 200 nM) was 502.58 ± 57.22 pg/mL. The IL1 alpha concentration (no stimulation, drug 200 nM) was 0.29 ± 0.03 pg/mL, the IL1 beta concentration (no stimulation, drug 200 nM) was 0.98 ± 0.14 pg/mL and the IL2 concentration (no stimulation, drug 200 nM) was 3.32 ± 0.6 pg/mL. The IL4 concentration (no stimulation, drug 200 nM) was 4.61 ± 0.7 pg/mL, the IL5 concentration (no stimulation, drug 200 nM) was 2.84 ± 0.38 pg/mL and the IL6 concentration (no stimulation, drug 200 nM) was 26.86 ± 2.62 pg/mL. For the same compound, the IL7 concentration (no stimulation, drug 200 nM) was 3.03 ± 0.2 pg/mL, the IL8 concentration (no stimulation, drug 200 nM) was 261.92 ± 12.12 pg/mL and the IL9 concentration (no stimulation, drug 200 nM) was 3.91 ± 0.48 pg/mL. It also gave an IL10 concentration (no stimulation, drug 200 nM) of 0.32 ± 0.07 pg/mL, an IL12p70 concentration (no stimulation, drug 200 nM) of 1.55 ± 0.29 pg/mL and an IL13 concentration (no stimulation, drug 200 nM) of 1.14 ± 0.13 pg/mL. The IL15 concentration (no stimulation, drug 200 nM) was 2.22 ± 0.42 pg/mL, the IL17A concentration (no stimulation, drug 200 nM) was 1.2 ± 0.29 pg/mL and the IL18 concentration (no stimulation, drug 200 nM) was 6.04 ± 0.5 pg/mL. It also gave an IL21 concentration (no stimulation, drug 200 nM) of 2.43 ± 0.31 pg/mL, an IL22 concentration (no stimulation, drug 200 nM) of 8.13 ± 0.77 pg/mL and an IL23 concentration (no stimulation, drug 200 nM) of 5.8 ± 1.11 pg/mL. The IL27 concentration (no stimulation, drug 200 nM) was 7.57 ± 2.22 pg/mL, the IL31 concentration (no stimulation, drug 200 nM) was 3.01 ± 0.44 pg/mL and the IP-10/CXCL10 concentration (no stimulation, drug 200 nM) was 19.75 ± 0.42 pg/mL. For the same compound, the LIF concentration (no stimulation, drug 200 nM) was 23.25 ± 0.99 pg/mL, the MCP1 concentration (no stimulation, drug 200 nM) was 1125.31 ± 55.12 pg/mL and the MIP1 alpha concentration (no stimulation, drug 200 nM) was 2.63 ± 0.35 pg/mL. The MIP1 beta concentration (no stimulation, drug 200 nM) was 113.94 ± 3.76 pg/mL, the PDGF-BB concentration (no stimulation, drug 200 nM) was 2.15 ± 0.13 pg/mL and the PIGF-1 concentration (no stimulation, drug 200 nM) was 20.17 ± 1.26 pg/mL. The RANTES concentration (no stimulation, drug 200 nM) was 8.42 ± 0.51 pg/mL, the SCF concentration (no stimulation, drug 200 nM) was 1.93 ± 0.13 pg/mL and the SDF-1 alpha concentration (no stimulation, drug 200 nM) was 1003.25 ± 40.97 pg/mL. The TNF alpha concentration (no stimulation, drug 200 nM) was 2.4 ± 0.71 pg/mL, the TNF beta concentration (no stimulation, drug 200 nM) was 4.7 ± 0.28 pg/mL and the VEGF-A concentration (no stimulation, drug 200 nM) was 554.18 ± 29.76 pg/mL. For the same compound, the VEGF-D concentration (no stimulation, drug 200 nM) was 3.19 ± 0.57 pg/mL and the bNGF concentration (no stimulation, drug 200 nM) was 3.84 ± 0.71 pg/mL.

Source: patent US12498382B2, “Biomarkers for vitiligo” (INCYTE CORPORATION, priority 2019, dated 2025)
